The record followed here is ChEMBL document CHEMBL1134707, “Orally active docetaxel analogue: synthesis of 10-deoxy-10-C-morpholinoethyl docetaxel analogues” (2001).

Structures are written as SMILES. Values after ≈ are worked out from the molar mass of the structure shown. A value given as a limit tells only on which side of the number the result lay.

In test [1] the test system is PC-6. As to the kind of experiment: Cytotoxic activity against PC-6/VCR29-9 vincristine resistant cell line expressing P-gp. In kind it is functional. As to conditions: Homo sapiens.
In test [2] the test system is PC-12. As to the kind of experiment: Cytotoxic activity against PC-12 human non-small cell lung cancer cell line.
For test [3], the system named is PC-6. The test is described as follows: Cytotoxic activity against PC-6 human small cell lung cancer. The format is functional.
Test [4] relates to Mus musculus. The test is described as follows: Antitumor activity against B16 melanoma in mice at dose of 22.2 mg/kg by po administration and body weight loss is reported. The format is functional.
The test system of test [5] is Mus musculus. The test is described as follows: Antitumor activity against B16 melanoma in mice at dose of 50 mg/kg by iv administration and body weight loss is reported. The format is functional.
Test [6] relates to Mus musculus. The test is described as follows: Antitumor activity against B16 melanoma in mice at dose of 50 mg/kg by iv administration and IR value is reported. In kind it is functional.
Test [7] concerns Mus musculus. The test is described as follows: Antitumor activity against B16 melanoma at dose of 50 mg/kg by po administration in mice and mortality rate is reported. In kind it is functional.
Test [8] concerns Mus musculus. The test is described as follows: Antitumor activity against B16 melanoma in mice at dose of 50 mg/kg by po administration and body weight loss is reported. The format is functional.
In test [9] the test system is Mus musculus. The test is described as follows: Antitumor activity against B16 melanoma in mice at dose of 33.3 mg/kg by iv administration and IR value is reported. In kind it is functional.
The subject of test [10] is Mus musculus. The test is described as follows: Antitumor activity against B16 melanoma at dose of 75 mg/kg by po administration in mice and mortality rate is reported. The format is functional.
Test [11] has as its system Mus musculus. The test is described as follows: Antitumor activity against B16 melanoma in mice at dose of 33.3 mg/kg by po administration and IR value is reported. The format is functional.
In test [12] the test system is Mus musculus. As to the kind of experiment: Antitumor activity against B16 melanoma in mice at dose of 112.5 mg/kg by po administration and IR value is reported. The format is functional.
The test system of test [13] is Mus musculus. The test is described as follows: Antitumor activity against B16 melanoma at dose of 33.3 mg/kg by po administration in mice and mortality rate is reported. In kind it is functional.
Test [14] deals with Mus musculus. As to the kind of experiment: Antitumor activity against B16 melanoma in mice at dose of 50 mg/kg by po administration and IR value is reported. In kind it is functional.
In test [15] the test system is Mus musculus. The test is described as follows: Antitumor activity against B16 melanoma at dose of 100 mg/kg by iv administration in mice and mortality rate is reported. In kind it is functional.
The subject of test [16] is Mus musculus. As to the kind of experiment: Antitumor activity against B16 melanoma in mice at dose of 22.2 mg/kg by iv administration and body weight loss is reported. The format is functional.
Test [17] concerns Mus musculus. The test is described as follows: Antitumor activity against B16 melanoma in mice at dose of 75 mg/kg by iv administration and body weight loss is reported. In kind it is functional.
The test system of test [18] is Mus musculus. As to the kind of experiment: Antitumor activity against B16 melanoma in mice at dose of 75 mg/kg by iv administration and IR value is reported. In kind it is functional.
Test [19] has as its system Mus musculus. The test is described as follows: Antitumor activity against B16 melanoma at dose of 33.3 mg/kg by iv administration in mice and mortality rate is reported. The format is functional.
Test [20] has as its system Mus musculus. As to the kind of experiment: Antitumor activity against B16 melanoma at dose of 112.5 mg/kg by po administration in mice and mortality rate is reported. The format is functional.
For test [21], the system named is Mus musculus. As to the kind of experiment: Antitumor activity against B16 melanoma at dose of 75 mg/kg by iv administration in mice and mortality rate is reported. In kind it is functional.
For test [22], the system named is Mus musculus. As to the kind of experiment: Antitumor activity against B16 melanoma in mice at dose of 112.5 mg/kg by po administration and body weight loss is reported. In kind it is functional.
The test system of test [23] is Mus musculus. The test is described as follows: Antitumor activity against B16 melanoma in mice at dose of 33.3 mg/kg by iv administration and body weight loss is reported. In kind it is functional.
For test [24], the system named is Mus musculus. The test is described as follows: Antitumor activity against B16 melanoma in mice at dose of 33.3 mg/kg by po administration and body weight loss is reported. In kind it is functional.
Test [25] deals with Mus musculus. As to the kind of experiment: Antitumor activity against B16 melanoma in mice at dose of 22.2 mg/kg by iv administration and IR value is reported. In kind it is functional.
The test system of test [26] is Mus musculus. As to the kind of experiment: Antitumor activity against B16 melanoma in mice at dose of 75 mg/kg by po administration and IR value is reported. The format is functional.
In test [27] the test system is Mus musculus. The test is described as follows: Antitumor activity against B16 melanoma at dose of 50 mg/kg by iv administration in mice and mortality rate is reported. In kind it is functional.
The subject of test [28] is Mus musculus. As to the kind of experiment: Antitumor activity against B16 melanoma in mice at dose of 75 mg/kg by po administration and body weight loss is reported. The format is functional.
Test [29] relates to Mus musculus. The test is described as follows: Antitumor activity against B16 melanoma in mice at dose of 22.2 mg/kg by po administration and IR value is reported. In kind it is functional.
In test [30] the test system is Mus musculus. As to the kind of experiment: Antitumor activity against B16 melanoma at dose of 22.2 mg/kg by po administration in mice and mortality rate is reported. In kind it is functional.
The subject of test [31] is PC-12. The test is described as follows: Cytotoxic activity against PC-12 human non-small cell lung cancer cell line. In kind it is functional. As to conditions: Rattus norvegicus.
The subject of test [32] is Mus musculus. As to the kind of experiment: Antitumor activity against B16 melanoma in mice at dose of 100 mg/kg by iv administration and body weight loss is reported. The format is functional.
For test [33], the system named is Mus musculus. The test is described as follows: Antitumor activity against B16 melanoma at dose of 600 mg/kg by po administration in mice and mortality rate is reported. In kind it is functional.
For test [34], the system named is Mus musculus. The test is described as follows: Antitumor activity against B16 melanoma in mice at dose of 600 mg/kg by po administration and IR value is reported. The format is functional.
Test [35] deals with Mus musculus. The test is described as follows: Antitumor activity against B16 melanoma in mice at dose of 600 mg/kg by po administration and body weight loss is reported. In kind it is functional.
In test [36] the test system is Mus musculus. As to the kind of experiment: Antitumor activity against B16 melanoma in mice at dose of 100 mg/kg by iv administration and IR value is reported. In kind it is functional.

What is called GI50 is the concentration that inhibits growth by half. Read a high GI50 as lower sensitivity of the cells. In the case of `CC(=O)O[C@@]12CO[C@@H]1CC[C@@]1(C)C(=O)[C@H](CCN3CCOCC3)C3=C(C)[C@@H](OC(=O)[C@H](O)[C@@H](NC(=O)OC(C)(C)C)c4ccccc4)C[C@@](O)([C@@H](OC(=O)c4ccccc4)C12)C3(C)C` (some centres not stated), the values for the GI50 in [1], in [2] and in [3] were 20.4 ng/mL (≈ 22.9 nM), 1.47 ng/mL (≈ 1.65 nM) and 0.761 ng/mL (≈ 0.856 nM), respectively.

Take `CO[C@H]1C[C@H]2OC[C@@]2(OC(C)=O)[C@H]2[C@H](OC(=O)c3ccccc3)[C@]3(O)C[C@H](OC(=O)[C@H](O)[C@@H](NC(=O)OC(C)(C)C)c4ccccc4)C(C)=C([C@@H](CCN4CCOCC4)C(=O)[C@]12C)C3(C)C`: the BWL in test [4] was below 0%; in test [5], 18%; in test [8], below 1.7%; in test [16] it was 5.7%; in [17] it was 19.2%; in test [22], below 20%. Besides, the BWL in [23] amounted to 9.4%; in test [24], 0.9%; in test [28], 5%. Also, the IR in [6] is 98.6%; in test [9], 94.4%; in test [11] it was 82.8%; in [12] it was 99%; in test [14], 96.2%; in test [18], 99.4%. Moreover, the IR is listed as 93.7% in test [25], 98.3% in test [26] and 81.7% in test [29]. Moreover, the 50% growth inhibitory concentration (GI50) in [1] was determined as 9.01 ng/mL (≈ 9.8 nM); in test [2] it was 0.756 ng/mL (≈ 0.823 nM); in [3] it was 0.266 ng/mL (≈ 0.289 nM). For the same compound, the Mortality is given as 0 in test [7]; 0 in test [10]; 0 in test [13]; 0 in [15]; 0 in [19]; 4 in [20]. Also, the Mortality in [21] is given as 5; in test [27] it was 0; in test [30] it was 0.

Regarding `CC(=O)O[C@@]12CO[C@@H]1C[C@H](OCF)C1(C)C(=O)[C@H](CCN3CCOCC3)C3=C(C)[C@@H](OC(=O)[C@H](O)[C@@H](NC(=O)OC(C)(C)C)c4ccccc4)C[C@@](O)([C@@H](OC(=O)c4ccccc4)C12)C3(C)C` (some centres not stated), the GI50 in [1] stood at 40.4 ng/mL (≈ 43.1 nM); in test [31], 1.5 ng/mL (≈ 1.6 nM); in [3], 0.246 ng/mL (≈ 0.263 nM).

`CC(=O)O[C@@]12CO[C@@H]1CC1C[C@@]13C(=O)[C@H](CCN1CCOCC1)C1=C(C)[C@@H](OC(=O)[C@H](O)[C@@H](NC(=O)OC(C)(C)C)c4ccccc4)C[C@@](O)([C@@H](OC(=O)c4ccccc4)C32)C1(C)C` (some centres not stated): the figures for the concentration for 50% growth inhibition (GI50) in [1], in test [2] and in [3] were 38.6 ng/mL (≈ 43.5 nM), 3.56 ng/mL (≈ 4.01 nM) and 0.873 ng/mL (≈ 0.984 nM), respectively.

With `CC(=O)O[C@@]12CO[C@@H]1C[C@@H](F)[C@@]1(C)C(=O)[C@H](CCN3CCOCC3)C3=C(C)[C@@H](OC(=O)[C@H](O)[C@@H](NC(=O)OC(C)(C)C)c4ccccc4)C[C@@](O)([C@@H](OC(=O)c4ccccc4)C12)C3(C)C` (some centres not stated), the GI50 is 16.2 ng/mL (≈ 17.9 nM) in [1], 2.55 ng/mL (≈ 2.81 nM) in test [2] and 0.379 ng/mL (≈ 0.418 nM) in test [3].

As for `CC(=O)O[C@@]12CO[C@@H]1C[C@H](O)[C@@]1(C)C(=O)[C@H](CCN3CCOCC3)C3=C(C)[C@@H](OC(=O)[C@H](O)[C@@H](NC(=O)OC(C)(C)C)c4ccccc4)C[C@@](O)([C@@H](OC(=O)c4ccccc4)[C@H]21)C3(C)C`, the GI50 in test [1] came out at 76.3 ng/mL (≈ 84.3 nM); in test [2], 21.5 ng/mL (≈ 23.8 nM); in test [3], 1.72 ng/mL (≈ 1.9 nM).

With `CC(=O)O[C@@]12CO[C@@H]1C[C@H](O)[C@@]1(C)C(=O)[C@H](O)C3=C(C)[C@@H](OC(=O)[C@H](O)[C@@H](NC(=O)OC(C)(C)C)c4ccccc4)C[C@@](O)([C@@H](OC(=O)c4ccccc4)[C@H]21)C3(C)C.O.O.O` [DOCETAXEL], the BWL in [32] and in test [35] was below 0% each time. The 50% growth inhibitory concentration (GI50) in test [1] turned out to be 39.6 ng/mL; in [2], 11.7 ng/mL; in [3] it was 0.408 ng/mL. For the same compound, the Mortality in test [33] and in [15] was 0 in each case. Further, the IR in [34] is recorded as 6.2%; in test [36], 95.1%.

On to `CC(=O)O[C@@]12CO[C@@H]1C=C[C@@]1(C)C(=O)[C@H](CCN3CCOCC3)C3=C(C)[C@@H](OC(=O)[C@H](O)[C@@H](NC(=O)OC(C)(C)C)c4ccccc4)C[C@@](O)([C@@H](OC(=O)c4ccccc4)C12)C3(C)C` (some centres not stated), for which the GI50 in test [1] was 18 ng/mL (≈ 20.3 nM); in test [2] it was 0.824 ng/mL (≈ 0.929 nM); in [3], 0.5 ng/mL (≈ 0.564 nM).
